Measurements reported in patent US7148352B2, “Method of inhibiting neurotrophin-receptor binding” (Queen's University at Kingston, priority 1999, dated 2006).
Where “and” joins values, the source holds several entries; their conditions need not be identical. Identical values can stand only once.

system: p75^NTR (PC12^nnr5 cells, expressing p75^NTR only); assay: 125I-NGF receptor binding to PC12^nnr5 cells in the presence of competitor; design: species or system rat; conditions: compound 50 μM; 125I-NGF 1 nM; 2 h at 4° C.; average of three values
Method: (§1) The radio-iodination and receptor binding of NGF (Sutter et al., 1979) was performed with modifications (Ross et al., 1997) as follows: Evaluation of the ability of NCP compounds to inhibit TrkA and p75^NTR binding was determined by the binding of ^125I-NGF to PC12 cells (rat pheochromocytoma cells expressing TrkA and p75^NTR; obtained from ATCC) and PC12^nnr5 (rat pheochromocytoma cells expressing p75^NTR only; obtained from Dr. L. Greene, Columbia University, NY). The p75^NTR is in a low affinity state and a high affinity state, respectively, in these cell types (Ross et al., 1998). PC12 and PC12^nnr5 cells were grown in RPMI (Sigma) with 10% heat inactivated donor horse serum and 5% fetal calf serum. Cells were harvested by replacing the medium with calcium, magnesium-free balanced salt solution (Gey's solution) and incubating at 37° C. for 15 minutes. Cells were pelleted by centrifugation and suspended in HKR buffer (10 mM Hepes [pH 7.35] containing 125 mM NaCl, 4.8 mM KCl, 1.3 mM CaCl2, 1.2 mM MgSO4, 1.2 mM KH2PO4, 1 g/L glucose and 1 g/L BSA) at a cell concentration of 2×10^6/mL and kept at 4° C. Triplicate tubes were set up for total binding, non-specific binding and binding in the presence of candidate competitor molecule (i.e., a tube for each data point). Each tube contained ^125I-NGF (at 1 nM), 400,000 cells (for a final cell concentration of 10^6/mL) and NGF (50 nM, to define non-specific binding), as required. The tubes were incubated for 2 h at 4° C. and specific binding evaluated by measuring specifically bound DPM (Ross et al., 1997). Data were analysed and the results expressed as receptor binding observed in the presence of competitor (e.g. NCP compounds) as a percentage of receptor binding in the absence of a competitor.

Row | Compound | nnr5 % of Max, Avg
1 | Nc1ccc2c(c1)C(=O)N(c1ccc(C(=O)O)cc1)C2=O [Compound 165, 4-amino-N-(p-carboxyphenyl)phthalimide] | = 61 % of Max
2 | O=C(O)c1ccc(N2C(=O)c3ccc(C(=O)O)cc3C2=O)cc1 [Compound 105, 4-carboxy-N-(p-carboxyphenyl)phthalimide] | = 34 % of Max
3 | O=C(O)CCCCN1C(=O)c2cccc([N+](=O)[O-])c2C1=O [Compound 123, 3-nitro-N-(4-carboxybutyl)phthalimide] | = 150 % of Max
4 | O=C(O)CCCN1C(=O)c2ccc(C(=O)O)cc2C1=O [Compound 102, 4-carboxy-N-(3-carboxypropyl)phthalimide] | = 55 % of Max
5 | O=C(O)c1ccc2c(c1)C(=O)N(c1ccccc1C(=O)O)C2=O [Compound 107, 4-carboxy-N-(o-carboxyphenyl)phthalimide] | = 85 % of Max
6 | O=C(O)CCN1C(=O)c2ccc(C(=O)O)cc2C1=O [Compound 101, 4-carboxy-N-(2-carboxyethyl)phthalimide] | = 81 % of Max
7 | O=C(O)c1ccc(N2C(=O)c3ccc([N+](=O)[O-])cc3C2=O)cc1 [Compound 145, 4-nitro-N-(p-carboxyphenyl)phthalimide] | = 78 % of Max
8 | O=C(O)CCCN1C(=O)c2cccc([N+](=O)[O-])c2C1=O [Compound 122, 3-nitro-N-(3-carboxypropyl)phthalimide] | = 163 % of Max
9 | O=C(O)c1cccc(N2C(=O)c3ccc(C(=O)O)cc3C2=O)c1 [Compound 106, 4-carboxy-N-(m-carboxyphenyl)phthalimide] | = 26 % of Max
10 | O=C(O)c1cccc(N2C(=O)c3cccc4c([N+](=O)[O-])ccc(c34)C2=O)c1 [Compound 226, 4-nitro-N-(m-carboxyphenyl)-1,8-naphthalimide] | = 12 % of Max
11 | O=C(O)c1cccc(N2C(=O)c3ccc([N+](=O)[O-])cc3C2=O)c1 [Compound 146, 4-nitro-N-(m-carboxyphenyl)phthalimide] | = 44 % of Max
12 | O=C(O)CCCCN1C(=O)c2ccc([N+](=O)[O-])cc2C1=O [Compound 143, 4-nitro-N-(4-carboxybutyl)phthalimide] | = 75 % of Max

same assay, conditions: compound 50 μM; 125I-NGF 1 nM; 2 h at 4° C.; receptor binding as percentage of binding in absence of competitor

Row | Compound | nnr5 % of Max (individual determinations)
13 | Nc1ccc2c(c1)C(=O)N(c1ccc(C(=O)O)cc1)C2=O [Compound 165, 4-amino-N-(p-carboxyphenyl)phthalimide] | 61 % of Max and 53 % of Max and 68 % of Max
14 | O=C(O)c1ccc(N2C(=O)c3ccc(C(=O)O)cc3C2=O)cc1 [Compound 105, 4-carboxy-N-(p-carboxyphenyl)phthalimide] | 31 % of Max and 17 % of Max and 55 % of Max
15 | O=C(O)CCCCN1C(=O)c2cccc([N+](=O)[O-])c2C1=O [Compound 123, 3-nitro-N-(4-carboxybutyl)phthalimide] | 172 % of Max and 161 % of Max and 117 % of Max
16 | O=C(O)CCCN1C(=O)c2ccc(C(=O)O)cc2C1=O [Compound 102, 4-carboxy-N-(3-carboxypropyl)phthalimide] | 55 % of Max and 50 % of Max and 61 % of Max
17 | O=C(O)c1ccc2c(c1)C(=O)N(c1ccccc1C(=O)O)C2=O [Compound 107, 4-carboxy-N-(o-carboxyphenyl)phthalimide] | 58 % of Max and 113 % of Max and 83 % of Max
18 | O=C(O)CCN1C(=O)c2ccc(C(=O)O)cc2C1=O [Compound 101, 4-carboxy-N-(2-carboxyethyl)phthalimide] | 89 % of Max and 91 % of Max and 64 % of Max
19 | O=C(O)c1ccc(N2C(=O)c3ccc([N+](=O)[O-])cc3C2=O)cc1 [Compound 145, 4-nitro-N-(p-carboxyphenyl)phthalimide] | 76 % of Max and 86 % of Max and 71 % of Max
20 | O=C(O)CCCN1C(=O)c2cccc([N+](=O)[O-])c2C1=O [Compound 122, 3-nitro-N-(3-carboxypropyl)phthalimide] | 232 % of Max and 152 % of Max and 104 % of Max
21 | O=C(O)c1cccc(N2C(=O)c3ccc(C(=O)O)cc3C2=O)c1 [Compound 106, 4-carboxy-N-(m-carboxyphenyl)phthalimide] | 37 % of Max and 16 % of Max and 24 % of Max
22 | O=C(O)c1cccc(N2C(=O)c3cccc4c([N+](=O)[O-])ccc(c34)C2=O)c1 [Compound 226, 4-nitro-N-(m-carboxyphenyl)-1,8-naphthalimide] | 13 % of Max (2×) and 10 % of Max
23 | O=C(O)c1cccc(N2C(=O)c3ccc([N+](=O)[O-])cc3C2=O)c1 [Compound 146, 4-nitro-N-(m-carboxyphenyl)phthalimide] | 48 % of Max and 43 % of Max and 42 % of Max
24 | O=C(O)CCCCN1C(=O)c2ccc([N+](=O)[O-])cc2C1=O [Compound 143, 4-nitro-N-(4-carboxybutyl)phthalimide] | 76 % of Max and 79 % of Max and 71 % of Max

biological target: T1, TrkA and p75^NTR (PC12 cells) (Mus musculus, UniProt P01139); assay: 125I-NGF receptor binding to PC12 cells in the presence of competitor; design: species or system rat; conditions: compound 50 μM; 125I-NGF 1 nM; 2 h at 4° C.; average of three values
T1 construct: PC12 cells (rat pheochromocytoma cells expressing TrkA and p75^NTR; obtained from ATCC); host or cells: PC12 rat pheochromocytoma cells (intact, in suspension)
T1 sequence (P01139 122-241): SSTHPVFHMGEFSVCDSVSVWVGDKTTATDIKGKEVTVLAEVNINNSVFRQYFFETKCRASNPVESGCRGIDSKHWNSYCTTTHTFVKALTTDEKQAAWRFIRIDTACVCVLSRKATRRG
Method: as §1

Row | Compound | PC12 % of Max, Avg
25 | Nc1ccc2c(c1)C(=O)N(c1ccc(C(=O)O)cc1)C2=O [Compound 165, 4-amino-N-(p-carboxyphenyl)phthalimide] | = 49 % of Max
26 | O=C(O)c1ccc(N2C(=O)c3ccc(C(=O)O)cc3C2=O)cc1 [Compound 105, 4-carboxy-N-(p-carboxyphenyl)phthalimide] | = 36 % of Max
27 | O=C(O)CCCCN1C(=O)c2cccc([N+](=O)[O-])c2C1=O [Compound 123, 3-nitro-N-(4-carboxybutyl)phthalimide] | = 97 % of Max
28 | O=C(O)CCCN1C(=O)c2ccc(C(=O)O)cc2C1=O [Compound 102, 4-carboxy-N-(3-carboxypropyl)phthalimide] | = 91 % of Max
29 | O=C(O)c1ccc2c(c1)C(=O)N(c1ccccc1C(=O)O)C2=O [Compound 107, 4-carboxy-N-(o-carboxyphenyl)phthalimide] | = 100 % of Max
30 | O=C(O)CCN1C(=O)c2ccc(C(=O)O)cc2C1=O [Compound 101, 4-carboxy-N-(2-carboxyethyl)phthalimide] | = 107 % of Max
31 | O=C(O)c1ccc(N2C(=O)c3ccc([N+](=O)[O-])cc3C2=O)cc1 [Compound 145, 4-nitro-N-(p-carboxyphenyl)phthalimide] | = 70 % of Max
32 | O=C(O)CCCN1C(=O)c2cccc([N+](=O)[O-])c2C1=O [Compound 122, 3-nitro-N-(3-carboxypropyl)phthalimide] | = 97 % of Max
33 | O=C(O)c1cccc(N2C(=O)c3ccc(C(=O)O)cc3C2=O)c1 [Compound 106, 4-carboxy-N-(m-carboxyphenyl)phthalimide] | = 44 % of Max
34 | O=C(O)c1cccc(N2C(=O)c3cccc4c([N+](=O)[O-])ccc(c34)C2=O)c1 [Compound 226, 4-nitro-N-(m-carboxyphenyl)-1,8-naphthalimide] | = 30 % of Max
35 | O=C(O)c1cccc(N2C(=O)c3ccc([N+](=O)[O-])cc3C2=O)c1 [Compound 146, 4-nitro-N-(m-carboxyphenyl)phthalimide] | = 58 % of Max
36 | O=C(O)CCCCN1C(=O)c2ccc([N+](=O)[O-])cc2C1=O [Compound 143, 4-nitro-N-(4-carboxybutyl)phthalimide] | = 78 % of Max

system: T2, TrkA and p75^NTR (PC12 cells); assay: as above; design: species or system rat; conditions: compound 50 μM; 125I-NGF 1 nM; 2 h at 4° C.; receptor binding as percentage of binding in absence of competitor
T2 construct: PC12 cells (rat pheochromocytoma cells expressing TrkA and p75^NTR; obtained from ATCC); host or cells: PC12 rat pheochromocytoma cells (intact, in suspension)
T2 sequence (P01139 122-241): as above
Method: as §1

Row | Compound | PC12 % of Max (individual determinations)
37 | Nc1ccc2c(c1)C(=O)N(c1ccc(C(=O)O)cc1)C2=O [Compound 165, 4-amino-N-(p-carboxyphenyl)phthalimide] | 54 % of Max and 53 % of Max and 40 % of Max
38 | O=C(O)c1ccc(N2C(=O)c3ccc(C(=O)O)cc3C2=O)cc1 [Compound 105, 4-carboxy-N-(p-carboxyphenyl)phthalimide] | 29 % of Max and 38 % of Max and 40 % of Max
39 | O=C(O)CCCCN1C(=O)c2cccc([N+](=O)[O-])c2C1=O [Compound 123, 3-nitro-N-(4-carboxybutyl)phthalimide] | 118 % of Max and 75 % of Max and 98 % of Max
40 | O=C(O)CCCN1C(=O)c2ccc(C(=O)O)cc2C1=O [Compound 102, 4-carboxy-N-(3-carboxypropyl)phthalimide] | 79 % of Max and 80 % of Max and 113 % of Max
41 | O=C(O)c1ccc2c(c1)C(=O)N(c1ccccc1C(=O)O)C2=O [Compound 107, 4-carboxy-N-(o-carboxyphenyl)phthalimide] | 111 % of Max and 86 % of Max and 103 % of Max
42 | O=C(O)CCN1C(=O)c2ccc(C(=O)O)cc2C1=O [Compound 101, 4-carboxy-N-(2-carboxyethyl)phthalimide] | 89 % of Max and 94 % of Max and 139 % of Max
43 | O=C(O)c1ccc(N2C(=O)c3ccc([N+](=O)[O-])cc3C2=O)cc1 [Compound 145, 4-nitro-N-(p-carboxyphenyl)phthalimide] | 60 % of Max and 77 % of Max and 73 % of Max
44 | O=C(O)CCCN1C(=O)c2cccc([N+](=O)[O-])c2C1=O [Compound 122, 3-nitro-N-(3-carboxypropyl)phthalimide] | 106 % of Max and 88 % of Max and 98 % of Max
45 | O=C(O)c1cccc(N2C(=O)c3ccc(C(=O)O)cc3C2=O)c1 [Compound 106, 4-carboxy-N-(m-carboxyphenyl)phthalimide] | 40 % of Max (2×) and 52 % of Max
46 | O=C(O)c1cccc(N2C(=O)c3cccc4c([N+](=O)[O-])ccc(c34)C2=O)c1 [Compound 226, 4-nitro-N-(m-carboxyphenyl)-1,8-naphthalimide] | 27 % of Max and 29 % of Max and 35 % of Max
47 | O=C(O)c1cccc(N2C(=O)c3ccc([N+](=O)[O-])cc3C2=O)c1 [Compound 146, 4-nitro-N-(m-carboxyphenyl)phthalimide] | 52 % of Max (2×) and 71 % of Max
48 | O=C(O)CCCCN1C(=O)c2ccc([N+](=O)[O-])cc2C1=O [Compound 143, 4-nitro-N-(4-carboxybutyl)phthalimide] | 65 % of Max and 97 % of Max and 72 % of Max

system: not given; assay: not given; conditions: not given

Row | Compound | melting point [°C]
49 | O=C(O)c1cccc(N2C(=O)c3ccc([N+](=O)[O-])cc3C2=O)c1 [Compound 146, 4-nitro-N-(m-carboxyphenyl)phthalimide] | 306 to 308
